Where two headings read alike, the source gives them in different places. Where no end group is shown, it is not given here. The star is where a group is joined. Myristoyl = CCCCCCCCCCCCCC(=O)*
Columns and labels:
[1] = tested on: mouse red blood cell suspension; details: 37°C, 60 min, OD 590 nm, 0.1% Triton X-100 positive control
Protocol: In order to evaluate the hemolytic activity of self-assembled peptides on normal mammalian cells, fresh blood of normal mice was collected, and heparin sodium was anticoagulated and stored. After centrifugation at 4°C and 3000 rpm for 10 min, the precipitate was collected, washed, and centrifuged with normal saline for three times and then resuspended at 10% (v/v). We mix 100 μL of different concentrations of drugs with 100 μL of mouse red blood cell suspension, incubate in a constant temperature oscillation incubator at 37°C for 60 min, then take out and centrifuge according to the above setting, absorb 100 μL of supernatant, put it in a 96-well cell culture plate, and measure the OD value at 590 nm by M200 full-band enzyme-labeled instrument (Infinite M200 Pro, Switzerland). Then, 100 μL of 0.1% Triton X-100 solution was used as a positive control and PBS as a negative control. According to the formula, hemolysis (%) = (experimental group OD value − negative control OD value)/(positive control OD value − negative control OD value) × 100%.

HUVECs [2] = assay: Transwell migration assay; format: cell-based, human; details: HUVECs in HG + LPS; p < 0.01
Protocol: HUVECs (1 × 10^4 cells/well) were incubated in the upper chamber of an 8-μm pore size (Corning, New York) and placed into a 24-well plate for 16 h at 37°C with 5% CO2. Cells adhering to the top surface of the Transwell membrane were carefully removed using a cotton swab. Cells that had migrated to the bottom of the chamber were fixed with 4% paraformaldehyde for 30 min and stained with 0.1% CV for 20 min. Finally, the chambers were placed on slides and imaged using an inverted fluorescence microscope (ThermoFish EVOS, United States). The number of cells in five random fields of each chamber was counted to determine migration ability.

HUVECs [3] = assay: NO secretion, Griess reaction; format: cell-based, human; details: HG + LPS (HG + LPS 0.5 times the original level), n = 3
Protocol: NO levels were determined using the Griess reaction. Briefly, 100 μL of cell culture supernatant was mixed with an equal volume of Griess reagent and incubated at room temperature in the dark for 30 min. The absorbance of the reaction mixture was measured at 540 nm using a microplate reader. Sodium nitrite (NaNO2) was used as a standard to generate a calibration curve, and the NO concentration in the samples was calculated accordingly. All experiments were independently performed in triplicate to ensure data reliability and reproducibility.

[4] = TEM of self-assembled structures; format: physicochemical; details: 32 μg/mL, deionized water, 1.5% PTA negative stain
Protocol: The self-assembly morphology of peptide amphiphiles in water was observed using TEM. Each sample was mounted on a 300-mesh copper-coated carbon grid and then negatively stained with a 1.5% phosphotungstic acid solution (1.5% PTA). Before imaging, all samples were air-dried for approximately 10 min. Finally, the samples were characterized under an acceleration voltage of 80 kV.

Question: With “Myristoyl-SSRRKPCKGWLCKLKLRGGYTLIGSATNLNRPTYVRAGGGDRVYIHP (cysteines drawn unpaired) [MYR-DM-ANG1-7]” as the substance, how does the “hemolysis rate of red blood cells” value ([1]; 128 μg/mL) read?
Answer: 6.01%

Question: And the “hemolysis rate of red blood cells” value ([1]; 8-64 μg/mL)?
Answer: less than 5%

Question: What about the “number of cells passing through the chamber (Transwell)” value (HUVECs [2]) of the same substance?
Answer: increased

Question: What about the “NO secretion in cell supernatant, increases to” value (HUVECs [3]) of the same substance?
Answer: 1.63 times

Question: What about the “particle size of micelles” value [4] of the same substance?
Answer: 22.38 ± 1.63 nm

From article PMC12419922, “Myristoylated Cathelicidin-DM Fused With ANG1-7: A Novel Self-Assembling Antimicrobial Peptide for the Treatment and Mechanism of Diabetic Infected Wounds” (Journal of Diabetes Research, 2025)
